In ChEMBL document CHEMBL1201862, “PubChem BioAssay data set” (2004):
Activity calls are given as the source filed them.

Columns and labels:
Leucine aminopeptidase = biological target: T1, Leucine aminopeptidase (Plasmodium falciparum 3D7, UniProt Q8IL11); experiment: P. falciparum M17LAP inhibitors, primary screen, biochemical, fluorogenic H-Leu-NHMec substrate, 1536-well (AID 1619); assay type: functional
T1 sequence (Q8IL11 whole entry): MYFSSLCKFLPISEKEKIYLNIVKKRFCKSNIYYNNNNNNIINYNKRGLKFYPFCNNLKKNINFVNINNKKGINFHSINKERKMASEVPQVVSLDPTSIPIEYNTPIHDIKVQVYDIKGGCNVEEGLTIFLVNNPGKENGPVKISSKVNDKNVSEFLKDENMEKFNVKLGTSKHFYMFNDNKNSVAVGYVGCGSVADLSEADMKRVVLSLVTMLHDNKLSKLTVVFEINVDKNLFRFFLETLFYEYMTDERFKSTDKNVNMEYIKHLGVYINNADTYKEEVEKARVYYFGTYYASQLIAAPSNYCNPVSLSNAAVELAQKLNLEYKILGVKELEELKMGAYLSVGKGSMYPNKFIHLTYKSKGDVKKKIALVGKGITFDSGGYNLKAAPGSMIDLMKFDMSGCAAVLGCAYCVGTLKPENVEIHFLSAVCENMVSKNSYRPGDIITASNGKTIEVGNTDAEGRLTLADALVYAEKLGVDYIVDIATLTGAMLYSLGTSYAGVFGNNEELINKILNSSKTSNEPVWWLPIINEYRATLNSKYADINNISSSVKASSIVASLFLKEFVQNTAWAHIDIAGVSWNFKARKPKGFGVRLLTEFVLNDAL

[1] = biological target: T2, Replicative DNA helicase DnaB (Mycobacterium tuberculosis, UniProt P9WMR3); experiment: DnaB intein splicing inhibitors, dose response, biochemical, cell-free fluorescence (AID 449749); assay type: functional
T2 sequence (P9WMR3 whole entry): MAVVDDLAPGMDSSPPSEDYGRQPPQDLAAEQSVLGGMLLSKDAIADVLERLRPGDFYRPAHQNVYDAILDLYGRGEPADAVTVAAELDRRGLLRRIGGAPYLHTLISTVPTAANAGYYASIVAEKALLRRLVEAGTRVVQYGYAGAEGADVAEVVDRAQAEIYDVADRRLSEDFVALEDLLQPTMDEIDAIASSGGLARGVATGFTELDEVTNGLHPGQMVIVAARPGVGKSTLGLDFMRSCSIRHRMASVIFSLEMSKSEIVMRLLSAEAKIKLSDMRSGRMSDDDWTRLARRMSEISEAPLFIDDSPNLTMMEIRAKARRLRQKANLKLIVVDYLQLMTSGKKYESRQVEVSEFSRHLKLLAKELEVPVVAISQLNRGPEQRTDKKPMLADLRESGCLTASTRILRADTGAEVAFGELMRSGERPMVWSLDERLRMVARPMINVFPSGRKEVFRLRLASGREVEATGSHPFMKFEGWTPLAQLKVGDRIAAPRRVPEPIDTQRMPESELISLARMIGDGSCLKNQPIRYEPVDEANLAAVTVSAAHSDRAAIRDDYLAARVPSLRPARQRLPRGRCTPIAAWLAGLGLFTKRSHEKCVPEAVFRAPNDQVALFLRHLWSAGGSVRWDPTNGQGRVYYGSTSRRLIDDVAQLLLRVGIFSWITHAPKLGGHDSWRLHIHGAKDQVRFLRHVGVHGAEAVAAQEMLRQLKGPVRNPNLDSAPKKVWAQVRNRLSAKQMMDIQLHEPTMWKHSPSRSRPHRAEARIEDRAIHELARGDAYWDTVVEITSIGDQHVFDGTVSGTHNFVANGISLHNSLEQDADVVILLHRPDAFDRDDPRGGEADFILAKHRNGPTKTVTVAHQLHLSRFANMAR

Protein RecA = biological target: T3, Protein RecA (Mycobacterium tuberculosis, UniProt P9WHJ3); experiment: Fluorescence Cell-Free Homogeneous Dose Retest to Identify Inhibitors of RecA-Intein Splicing Activity. [Related pubchem assays (depositor defined):AID2097, AID2223, AID489010, AID492950]; assay type: functional
T3 sequence (P9WHJ3 whole entry): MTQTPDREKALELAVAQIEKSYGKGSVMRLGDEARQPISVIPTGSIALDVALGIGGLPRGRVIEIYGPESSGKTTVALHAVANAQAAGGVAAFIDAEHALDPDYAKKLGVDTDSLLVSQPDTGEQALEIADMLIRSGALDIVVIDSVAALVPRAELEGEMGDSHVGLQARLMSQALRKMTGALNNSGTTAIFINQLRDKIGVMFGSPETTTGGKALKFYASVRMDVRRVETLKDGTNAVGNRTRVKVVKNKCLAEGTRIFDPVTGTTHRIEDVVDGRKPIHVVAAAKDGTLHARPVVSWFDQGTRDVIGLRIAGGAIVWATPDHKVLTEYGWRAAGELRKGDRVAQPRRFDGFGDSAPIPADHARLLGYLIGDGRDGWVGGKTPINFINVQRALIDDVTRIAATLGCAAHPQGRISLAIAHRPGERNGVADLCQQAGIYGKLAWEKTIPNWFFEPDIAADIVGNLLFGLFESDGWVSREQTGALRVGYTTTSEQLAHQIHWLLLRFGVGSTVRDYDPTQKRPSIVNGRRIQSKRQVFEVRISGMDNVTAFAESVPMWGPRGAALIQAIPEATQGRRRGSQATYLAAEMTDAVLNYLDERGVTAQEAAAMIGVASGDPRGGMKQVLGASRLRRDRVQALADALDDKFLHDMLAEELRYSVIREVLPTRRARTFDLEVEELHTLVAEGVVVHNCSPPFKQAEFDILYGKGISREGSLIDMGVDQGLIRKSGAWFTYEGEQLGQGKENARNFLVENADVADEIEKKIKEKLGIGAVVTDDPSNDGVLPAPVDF

[2] = biological target: Glyceraldehyde-3-phosphate dehydrogenase (Homo sapiens, UniProt P04406)
Chain of Glyceraldehyde-3-phosphate dehydrogenase (P04406 whole entry): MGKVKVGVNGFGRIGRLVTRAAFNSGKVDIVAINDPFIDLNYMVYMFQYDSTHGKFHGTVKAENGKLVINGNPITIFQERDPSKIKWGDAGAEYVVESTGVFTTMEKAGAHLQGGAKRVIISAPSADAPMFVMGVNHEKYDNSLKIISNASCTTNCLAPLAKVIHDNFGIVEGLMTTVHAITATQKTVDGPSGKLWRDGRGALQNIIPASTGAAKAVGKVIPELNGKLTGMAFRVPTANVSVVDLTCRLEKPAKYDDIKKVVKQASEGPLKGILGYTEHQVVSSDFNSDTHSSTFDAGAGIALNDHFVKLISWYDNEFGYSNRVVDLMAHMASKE

[3] = viability loss in THP-1 monocytes – THP-1 cells, cytotoxicity control for Vif-APOBEC3G degradation inhibitor project, dose response (AID 1117359); assay type: functional; conditions: THP-1
[4] = luciferase reporter signal suppression in cells – H4 neuroglioma cells, luminescence, dose response (AID 1990); assay type: functional, cell-based
[5] = Luminescence Cell-Based Dose Response HTS to Identify Inhibitors of 5'UTR Stem-Loop Driven Prion Protein mRNA Translation in H4 Neuroglioblastoma Cells. [Related pubchem assays: 1827 (Project Summary), 1813 (Primary HTS)]; assay type: functional
[6] = blockade of melanocortin 4 receptor signaling – cell-based, plate reader, cherry pick, counter-screen for LGR2 antagonist project, dose response (AID 743444); assay type: functional;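 further: transfected HEK 293 cells stimulated with alpha-MSH peptide; potency of inhibitors of the alpha-MSH evoked signal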
cells = assay type: functional, cell-based
[7] = Luminescence Cell-Based Dose Confirmation HTS to Identify Inhibitors of Platelet Dense Granule Release. [Related pubchem assays: 1663 (Primary HTS), 1678 (Summary of Project)]; assay type: functional
[8] = biological target: T4, RNA-binding protein pos-1 (Caenorhabditis elegans, UniProt G5EF15); experiment: disruptors of C. elegans POS-1 RNA interaction – biochemical, fluorescence polarization, dose response (AID 1964);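 further: purified POS-1 fused to maltose binding protein made in E. coli; potency of compounds blocking POS-1 binding to fluorescent RNA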
T4 sequence (G5EF15 whole entry): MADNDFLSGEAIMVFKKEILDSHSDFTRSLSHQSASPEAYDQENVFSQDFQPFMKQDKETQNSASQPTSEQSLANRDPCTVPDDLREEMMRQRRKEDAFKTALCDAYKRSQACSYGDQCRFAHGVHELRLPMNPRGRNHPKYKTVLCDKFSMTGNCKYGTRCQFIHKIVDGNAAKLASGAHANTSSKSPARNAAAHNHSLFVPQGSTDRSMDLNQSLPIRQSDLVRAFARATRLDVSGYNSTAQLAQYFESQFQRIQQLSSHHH

[9] = biological target: Luciferin 4-monooxygenase (Photinus pyralis, UniProt P08659); experiment: inhibition of purified Photinus pyralis luciferase – biochemical, luminescence, dose response (AID 1891)
Chain of Luciferin 4-monooxygenase (P08659 whole entry): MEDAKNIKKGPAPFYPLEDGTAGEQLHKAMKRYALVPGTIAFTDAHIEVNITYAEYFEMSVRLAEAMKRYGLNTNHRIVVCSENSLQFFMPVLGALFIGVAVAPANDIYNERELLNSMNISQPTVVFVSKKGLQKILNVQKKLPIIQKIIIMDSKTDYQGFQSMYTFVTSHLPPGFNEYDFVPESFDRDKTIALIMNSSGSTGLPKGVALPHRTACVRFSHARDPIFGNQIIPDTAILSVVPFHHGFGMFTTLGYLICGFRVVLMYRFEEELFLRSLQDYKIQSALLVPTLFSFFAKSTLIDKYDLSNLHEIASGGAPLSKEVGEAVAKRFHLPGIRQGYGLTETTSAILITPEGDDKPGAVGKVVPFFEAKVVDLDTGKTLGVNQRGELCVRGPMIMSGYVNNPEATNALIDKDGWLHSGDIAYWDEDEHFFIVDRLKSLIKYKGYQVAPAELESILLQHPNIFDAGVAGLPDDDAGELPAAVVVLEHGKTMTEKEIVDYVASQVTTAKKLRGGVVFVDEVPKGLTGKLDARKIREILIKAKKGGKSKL

HEK293 = experiment: EBV LMP1 TES2 canonical NF-kB signalling blockers – cell-based, HEK293, luciferase, cherry-pick, dose response (AID 588343); assay type: functional; conditions: Homo sapiens
[10] = viability loss in HEK293 cells – cell-based, plate reader, cherry-picked samples, cytotoxicity control, dose response (AID 743446); assay type: functional
[11] = blockers of bursicon-stimulated LGR2 cAMP reporter – cell-based, HEK293, CRE-luciferase reporter, cherry pick, set 2, dose response (AID 743343); assay type: functional;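 further: transfected cells were stimulated with diluted bursicon conditioned medium after compound addition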
[12] = toxicity toward HepG2 liver cells – cell-based, plate reader, cherry-pick, antagonist series, cytotoxicity control, dose response (AID 743416); assay type: functional
[13] = biological target: T5, Nuclear receptor subfamily 0 group B member 1 (Homo sapiens, UniProt P51843); assay type: functional, cell-based;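 further: HEK293T cells transfected with SF-1 and DAX-1 plus StAR promoter luciferase reporter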
T5 sequence (P51843 whole entry): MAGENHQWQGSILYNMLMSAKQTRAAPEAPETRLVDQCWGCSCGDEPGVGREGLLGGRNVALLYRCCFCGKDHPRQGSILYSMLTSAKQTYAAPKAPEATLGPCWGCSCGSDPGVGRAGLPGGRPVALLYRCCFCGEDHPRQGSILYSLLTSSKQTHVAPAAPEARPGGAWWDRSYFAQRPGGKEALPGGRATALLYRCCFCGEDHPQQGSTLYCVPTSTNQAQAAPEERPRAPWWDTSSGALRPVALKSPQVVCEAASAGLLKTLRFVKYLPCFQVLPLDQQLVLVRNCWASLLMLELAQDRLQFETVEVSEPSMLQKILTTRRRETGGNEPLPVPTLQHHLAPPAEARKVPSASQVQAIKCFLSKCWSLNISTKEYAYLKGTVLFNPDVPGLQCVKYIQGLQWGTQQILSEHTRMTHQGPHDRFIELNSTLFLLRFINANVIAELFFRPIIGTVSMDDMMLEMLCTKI

[14] = A549 cell cytotoxicity, dose response, cytotoxicity control, plate reader, cherry-pick, antagonist series (AID 743412); assay type: functional, cell-based
[15] = alpha-synuclein stem-loop luciferase translation blockers – H4 neuroglioma cells, luminescence, confirmation (AID 1988); assay type: functional, cell-based
[16] = biological target: T6, Zinc finger protein mex-5 (Caenorhabditis elegans, UniProt Q9XUB2); experiment: potency of MEX-5 RNA-binding blockers – biochemical, C. elegans, fluorescence polarization, dose response (AID 1960)
T6 sequence (Q9XUB2 whole entry): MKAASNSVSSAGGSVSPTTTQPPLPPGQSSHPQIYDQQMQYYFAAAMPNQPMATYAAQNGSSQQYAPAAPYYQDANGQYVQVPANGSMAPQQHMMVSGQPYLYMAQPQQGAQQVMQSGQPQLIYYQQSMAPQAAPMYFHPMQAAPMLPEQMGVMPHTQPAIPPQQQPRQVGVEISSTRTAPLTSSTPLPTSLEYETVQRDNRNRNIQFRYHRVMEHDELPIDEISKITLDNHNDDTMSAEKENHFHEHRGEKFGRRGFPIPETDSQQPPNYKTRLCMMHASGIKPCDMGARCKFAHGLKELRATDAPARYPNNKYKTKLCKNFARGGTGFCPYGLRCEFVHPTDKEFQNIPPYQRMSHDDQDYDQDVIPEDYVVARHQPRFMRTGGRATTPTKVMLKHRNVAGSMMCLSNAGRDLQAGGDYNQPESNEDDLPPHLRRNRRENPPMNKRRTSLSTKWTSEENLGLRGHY

[17] = biological target: T7, Heat shock factor protein 1 (Mus musculus, UniProt P38532); experiment: enhancement of HSF1-driven luciferase signal – cell-based, NIH3T3, luminescence, dose retest, confirmation (AID 435004); assay type: functional;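 further: stress induced by proteasome inhibitor MG132 added 30 min after compound; luciferase reporter driven by HSF1 response element in NIH3T3 cells; actives raise luminescence as potentiators of the MG132 stress response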
T7 sequence (P38532 whole entry): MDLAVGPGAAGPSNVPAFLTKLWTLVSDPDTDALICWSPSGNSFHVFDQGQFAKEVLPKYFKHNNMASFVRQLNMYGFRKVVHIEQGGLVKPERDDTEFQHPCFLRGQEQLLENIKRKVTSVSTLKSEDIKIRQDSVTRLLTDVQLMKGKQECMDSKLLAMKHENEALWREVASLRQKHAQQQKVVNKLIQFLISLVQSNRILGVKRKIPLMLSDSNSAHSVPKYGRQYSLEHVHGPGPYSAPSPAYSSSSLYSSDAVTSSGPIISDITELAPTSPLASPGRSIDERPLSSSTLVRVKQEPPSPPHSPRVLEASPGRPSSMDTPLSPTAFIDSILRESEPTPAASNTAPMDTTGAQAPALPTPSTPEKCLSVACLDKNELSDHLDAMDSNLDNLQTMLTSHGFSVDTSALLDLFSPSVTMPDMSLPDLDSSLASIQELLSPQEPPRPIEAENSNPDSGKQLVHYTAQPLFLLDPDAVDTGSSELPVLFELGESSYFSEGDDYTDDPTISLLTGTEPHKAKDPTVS

In the case of `CC(=O)N1CCC2(CC1)C(C#N)=C(N)Oc1[nH]nc(CSc3ccc(C)cc3)c12`, the IC50 (Leucine aminopeptidase) is reported as 21.1 µM (active), the AC50 [1] is reported as 4.72 µM (active) and the EC50 (Protein RecA) is reported as 2.9 µM (active).

In the case of `Cc1oc(-c2cc(Cl)cc(Cl)c2)cc1C(=O)Nc1ccc(S(N)(=O)=O)cc1`, the IC50 [2] is reported as > 100 µM (not active).

For `CC1CCc2[nH]c3ccc(C(=O)N(C)CC(=O)Nc4ccc(F)cc4)cc3c2C1` (configuration not stated), the CC50 [3] was > 40 µM (active).

With `Cc1nc2sc(-c3ccccc3)cc2c(=O)n1N` the EC50 [4] was 2.82 µM (active), the EC50 [5] was 6.26 µM (active) and the AC50 [6] was 2.66 µM (active). For the same compound, the IC50 (cells) was > 67.6 µM (inactive), the EC50 [7] was 1.73 µM (active) and the EC50 [8] was > 300 µM (not active). For the same compound, the EC50 [9] was 1.01 µM (active), the AC50 (HEK293) was 1.04 µM (active) and the AC50 [10] was 24.9 µM (active). The AC50 [11] was 2.31 µM (active), the AC50 [12] was 50 µM (active) and the IC50 [13] was > 67.6 µM (inactive). The AC50 [14] was 24.2 µM (active), the EC50 [15] was 3.44 µM (active) and the EC50 [16] was > 300 µM (not active).

In the case of `O=C(O)C1CCCCC1C(=O)Nc1ccc2c(c1)CCC2` (configuration not stated), the IC50 (Leucine aminopeptidase) is reported as 9.16 µM (active) and the EC50 [17] is reported as > 260 µM (inactive).
